Experimental data: patent publication US6258776A, “Calcium-regulated kinase” (priority 1997, dated 2001)

Legend:
calmodulin (CaM-agarose) = assay: binding of Ndr and deletion mutants from COS-1 cell lysates to CaM-agarose
Source text: In addition, the ability of untagged Ndr to interact with CaM is investigated. COS-1 cells are transfected with pECE or with derivative plasmids encoding wild-type Ndr, NdrΔ65-81 or NdrΔ1-84 (Millward, T. A., et al., (1995) Proc. Natl. Acad. Sci. USA 92, 5022-5026) using DEAE-dextran (Seed, B. and Aruffo, A. (1987) Proc. Natl. Acad. Sci. USA 84, 3365-3369). Seventy-two hours after transfection, cells are scraped into ice-cold phosphate-buffered saline (PBS), spun down, and disrupted in buffer A (TBS containing 1 mM dithiothreitol, 0.5 mM phenylmethylsulfonyl fluoride, 4 μM leupeptin and 1 mM benzamidine) using a tight-fitting all-glass dounce homogenizer. Extracts (20 μg) are adjusted to 1 mg/ml, supplemented with either 1 mM CaCl2 or 1 mM EGTA and then mixed for 2 h with 6 μl CaM-agarose. After washing three times with 1 ml of the corresponding binding buffer, the beads are eluted with buffer A containing 5 mM EGTA. Equal portions of the unbound and EGTA-eluted fractions are analysed by immunoblofting with anti-Ndr antibodies.
Samples are separated by SDS-PAGE and electroblotted to Immobilon-P membranes (Millipore). Blots are incubated in blocking buffer (50 mM Tris-HCl pH 7.5, 150 mM NaCl, 1% (v/v) Triton X-1 00, 0.5% (v/v) Tween 20, 5% (w/v) skim milk powder) and then probed for 2 h with primary antibodies diluted in the same buffer. Ndr and GST-Ndr are detected with Ab^452-465 at 4 μg/ml (Millward, T. A., et al., Op. Cit.); GST is detected with an anti-GST antiserum (1 :1000 dilution). Bound antibodies are detected using horseradish peroxidase-conjugated donkey anti-rabbit IgG antibodies and ECL substrates (Amersham).
To verify whether this domain of Ndr is indeed responsible for its interaction with CaM, deletion mutants of Ndr are expressed in COS-1 cells and tested for CaM binding as above. […] In lysates supplemented with Ca^2 , deletion of amino acids 65-81 cause a large reduction in CaM binding (to ~10% of the level of wild-type binding) as assessed by western blotting.

calmodulin = conditions: cited from earlier work
S100B = assay: co-immunoprecipitation of Ndr with anti-S100B from COS-1 cells; format: cell-based; conditions: co-expressed with S100B
Protocol: For expression of Ndr and S100B in mammalian cells, the cDNAs encoding Ndr and S100B are cloned into the pECE vector, which directs expression driven by an SV40-derived promoter. In addition, an amino-terminal truncation mutant of Ndr lacking the first 84 amino acids (1-84) is used.
The plasmids encoding Ndr and S100B are transfected into COS-1 cells, either alone or in combination. Seventy-two hours later, cells extracts are prepared and immunoprecipitated with an antibody recognising S100B. In an anti-Ndr western blot of the cell extracts, it is shown that Ndr is expressed an expected.

For “Ndr: nuclear serine/threonine protein kinase”, which “binding to CaM-agarose” value (calmodulin (CaM-agarose); lysate supplemented with EGTA) is on record?
The value was “no detectable binding”.

What about the “binding to CaM-agarose” value (calmodulin (CaM-agarose); lysates supplemented with Ca^2+) of the same substance?
Its value is “quantitatively and selectively removed from the lysate by CaM-agarose”.

What about the binding to calmodulin (calmodulin) of the same substance?
The binding to calmodulin was “capable of binding to calmodulin”.

And the “co-immunoprecipitation with anti-S100B” value (S100B)?
The value was “anti-S100B antibodies co-immunoprecipitated Ndr”.
